Assay results as given in patent US11007269B2, “P53 degradation inducing molecule and pharmaceutical composition” (Tokyo University of Science Foundation, priority 2016, dated 2021).

Target: T1, MDM2 protein (Homo sapiens, UniProt Q00987)
T1 construct: endogenous in cells; host or cells: HCT116
Assay: Western blot of endogenous MDM2 protein degradation (knockdown) in HCT116 cells
Format: cell-based
Settings: 48 hours after addition, vs DMSO control
Experimental: In Example 2, degradation (knockdown) of an endogenous wild-type p53 protein and MDM2 protein in HCT116 cells (human large intestinal cancer cells) to which TIBC-CANDDY_MLN had been added was evaluated by Western blot analysis.
HCT116 cells were seeded in a 24-well plate at a cell density of 8×10^4 cells/well, and then cultured under conditions of 37° C. and 5 vol % CO2 for 16 hours.
After 16 hours from cell seeding, TIBC-CANDDY_MLN or TIBC was added to HCT116 cells as follows. As a medium, a serum-free medium (37° C.) in which 1 mass % L-glutamine solution (Sigma-Aldrich) was added to D-MEM (high D-glucose, phenol red, sodium pyruvate (Wako Pure Chemical Industries, Ltd.)) was used. It is noted that the L-glutamine solution was added immediately before use. […]
After electrophoresis, proteins were transferred to a PVDF membrane (Immobion™-P, Millipore) under conditions of 100 V and 2 hours using a tank-type blotting device and a transfer buffer (25 mM Tris-HCl, 195 mM glycine, 0.01% SDS, 15% methanol). […] Subsequently, the membrane was treated with a chemiluminescence reagent Immobilon™ Western (Millipore), and then chemiluminescence was detected using a lumino image analyzer LAS-3000 (FUJIFILM Corporation).

T1 sequence (Q00987 whole entry): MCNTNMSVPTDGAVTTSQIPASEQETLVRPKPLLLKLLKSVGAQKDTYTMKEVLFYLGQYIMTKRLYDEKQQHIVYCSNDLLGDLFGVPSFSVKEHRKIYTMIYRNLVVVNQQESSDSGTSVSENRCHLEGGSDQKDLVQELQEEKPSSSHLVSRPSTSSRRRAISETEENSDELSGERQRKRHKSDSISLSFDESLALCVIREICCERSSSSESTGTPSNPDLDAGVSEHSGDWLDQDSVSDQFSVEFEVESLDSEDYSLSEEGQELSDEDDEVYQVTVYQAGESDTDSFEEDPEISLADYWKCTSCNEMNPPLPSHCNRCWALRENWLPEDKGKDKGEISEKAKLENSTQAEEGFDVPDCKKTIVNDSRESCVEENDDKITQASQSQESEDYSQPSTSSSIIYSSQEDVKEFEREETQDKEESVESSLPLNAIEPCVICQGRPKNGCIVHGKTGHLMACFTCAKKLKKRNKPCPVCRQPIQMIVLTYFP

- amount of the endogenous MDM2 protein (Western blot): reduced
SMILES: CC(C)C[C@H](NC(=O)CNC(=O)c1cc(Cl)ccc1Cl)C(=O)NCCCCCCC(=O)Nc1ccc(C(=O)/C=C/c2ccc(I)cc2)cc1 [TIBC-CANDDY_MLN]
